Like-named read-outs stand apart in the source and are kept apart here. *1 amine or outer side, *2 acyl side, *3 side chain or, on linkers, in order; H or OH if unused. Where a SMILES comes first, the peptide text is derived from it. Bridges are numbered along the chain shown (N, C = ends). Roman numbers before positions name the chains, in order. [ ]: non-standard residue; d: D form. Actinocin(9to1) = Cc1c2oc3c(C)ccc(C(=O)[*:1])c3nc-2c(C(=O)[*:2])c(N)c1=O; NMeV = CN[C@H](C(=O)O)C(C)C; Sar = CNCC(=O)O
Legend:
[1] = tested on: recRSV A2-L19FD489E-fireSMASh; assay: microbe, parasite or virus in culture; assay type: cell-based, Respiratory Syncytial Virus; details: 384-well, four replicate screens, mean ± SD, BEAS-2B co-infection; for inhibition at 5 µM: human respiratory syncytial virus, read-out: % Inhibition (anti-RSV)
recIAV WSN-NanoLuc [2] = assay: microbe, parasite or virus in culture; assay type: cell-based, influenza virus IAV/WSN/33 (H1N1); details: for inhibition at 5 µM: unidentified influenza virus, WSN, BEAS-2B, read-out: % Inhibition (anti-IAV)
recRSV A2-L19F-renilla = assay: microbe, parasite or virus in culture; assay type: cell-based; details: BEAS-2B; for EC50: human respiratory syncytial virus, read-out: EC50 RSV A2-L19F-renilla
recIAV WSN-NanoLuc [3] = details: for SI [CC50/EC50] IAV: SIIAV; for EC50 IAV WSN-nanoLuc: BEAS-2B, 95% confidence interval in parentheses, inactive = less than 50% reduction of mean reporter signal
[4] = tested on: recRSV A2-L19FD489E-fireSMASh; details: for SI [CC50/EC50] RSV: SIRSV
in vitro = details: human
recIAV WSN-NanoLuc [5] = assay: microbe, parasite or virus in culture; details: Influenza A virus, BEAS-2B, read-out: EC50 IAV WSN-nanoLuc
[6] = tested on: recRSV A2-L19FD489E-fireSMASh; assay: microbe, parasite or virus in culture; details: human respiratory syncytial virus, BEAS-2B, read-out: EC50 RSV A2-L19FD489E-fireSMASh
BEAS-2B cells = details: highest concentration 10 μM; tox = less than 50% cell viability after 44 hours at ≤10 μM
RSV A2 strain = details: cited from earlier work
RSV F protein = RSV F protein (Human respiratory syncytial virus, UniProt P12568); details: resistance sites in the RSV F protein; cited from earlier work
recRSV A2-L19F-ren = assay type: cell-based; details: GPAR-3710 added later than four hours post-infection; JMN3-003 added eight hours post-infection
[7] = 95% confidence interval in parentheses, inactive = less than 50% reduction of mean reporter signal

Sequence of RSV F protein (P12568 137-574 limits assumed): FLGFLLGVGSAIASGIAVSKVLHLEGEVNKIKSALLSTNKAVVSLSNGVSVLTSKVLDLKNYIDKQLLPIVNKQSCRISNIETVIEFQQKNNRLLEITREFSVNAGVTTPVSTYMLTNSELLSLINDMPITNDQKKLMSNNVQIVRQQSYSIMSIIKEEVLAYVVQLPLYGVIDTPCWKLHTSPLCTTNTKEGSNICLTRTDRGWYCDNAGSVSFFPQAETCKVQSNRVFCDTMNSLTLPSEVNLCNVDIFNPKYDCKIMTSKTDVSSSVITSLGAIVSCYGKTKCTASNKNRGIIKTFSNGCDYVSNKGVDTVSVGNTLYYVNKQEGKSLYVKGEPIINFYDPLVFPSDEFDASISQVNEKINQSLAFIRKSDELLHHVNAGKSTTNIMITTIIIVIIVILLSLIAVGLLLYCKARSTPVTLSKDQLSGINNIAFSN
Sequence of RSV F protein (P12568 26-109 partner limits assumed): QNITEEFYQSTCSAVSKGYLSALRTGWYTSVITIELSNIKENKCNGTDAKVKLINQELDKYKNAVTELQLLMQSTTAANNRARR

Q: With `Cc1c2oc3c(C)ccc(C(=O)N[C@@H]4C(=O)N[C@H](C(C)C)C(=O)N5CCC[C@H]5C(=O)N(C)CC(=O)N(C)[C@@H](C(C)C)C(=O)O[C@@H]4C)c3nc-2c(C(=O)N[C@@H]2C(=O)N[C@H](C(C)C)C(=O)N3CCC[C@H]3C(=O)N(C)CC(=O)N(C)[C@@H](C(C)C)C(=O)O[C@@H]2C)c(N)c1=O` [Actinomycin D] (I: T[dV]P[Sar][NMeV] / II: T[dV]P[Sar][NMeV]; ester I:1-I:C, II:1-II:C; linker I:N-II:N via Actinocin(9to1)) as the molecule, how does the “% Inhibition (anti-RSV)” value ([1]; 5 μM) read?
A: 52 ± 9.6%

Q: What about the “% Inhibition (anti-IAV)” value (recIAV WSN-NanoLuc [2]; 5 μM) of the same molecule?
A: 104 ± 1.5%

Q: With `Nc1nc(N)c2nc(CNc3ccc(C(=O)N[C@@H](CCC(=O)O)C(=O)O)cc3)cnc2n1` [Aminopterin] as the molecule, how does the EC50 (recRSV A2-L19F-renilla) read?
A: 50 nM

Q: And the “SI [CC50/EC50] IAV” value (recIAV WSN-NanoLuc [3])?
A: SIIAV 111

Q: And the “SI [CC50/EC50] RSV” value [4]?
A: SIRSV 143

Q: And the CC50 (in vitro)?
A: 10000 nM

Q: What about the EC50 (recIAV WSN-NanoLuc [5]) of the same molecule?
A: 90 nM

Q: What about the EC50 [6] of the same molecule?
A: 70 nM

Q: For `CC(=O)OC[C@H]1O[C@@H]([S-])[C@H](OC(C)=O)[C@@H](OC(C)=O)[C@@H]1OC(C)=O.CCP(CC)CC.[Au+]` [Auranofin], which “CC50 (PrestoBlue cell viability)” value (BEAS-2B cells) is on record?
A: tox^d

Q: Which results are given for `COc1cc2nc(N3CCCN(C)CC3)nc(NC3CCN(Cc4ccccc4)CC3)c2cc1OC` [BIX 01294]?
A: EC50 RSV A2-L19F-renilla (recRSV A2-L19F-renilla; [7]): inactive^e; EC50 IAV WSN-nanoLuc (recIAV WSN-NanoLuc [3]): inactive^e; EC50 RSV A2-L19FD489E-fireSMASh ([4]; BEAS-2B, 95% confidence interval in parentheses, inactive = less than 50% reduction of mean reporter signal): inactive^e; CC50 (in vitro): > 10000 nM

Q: With `O=c1n(Cc2nc3ccccc3n2CCCCO)c2cnccc2n1C1CC1` [BMS-433771] as the molecule, how does the EC50 (RSV A2 strain) read?
A: 10 nM

Q: And the reported resistance sites (RSV F protein)?
A: FF140I FV144A FD392G FK394R FD489Y

Q: Which EC50 (recRSV A2-L19F-renilla; [7]) does the source give for `Cc1c(-c2ccc(-c3ccccc3F)cc2)nc2ccc(F)cc2c1C(=O)O` [Brequinar] here?
A: 1800 nM

Q: What about the “SI [CC50/EC50] IAV” value (recIAV WSN-NanoLuc [3]) of the same molecule?
A: SIIAV >3.8

Q: And the “SI [CC50/EC50] RSV” value [4]?
A: SIRSV >6.3

Q: And the CC50 (in vitro)?
A: > 10000 nM

Q: And the EC50 (recIAV WSN-NanoLuc [5])?
A: 2600 nM

Q: And the EC50 [6]?
A: 1600 nM

Q: Which “CC50 (PrestoBlue cell viability)” value (BEAS-2B cells) does the source give for `CNc1ccc2oc(C[C@H]3O[C@@]4(CC[C@H]3C)O[C@H]([C@H](C)C(=O)c3ccc[nH]3)[C@H](C)C[C@H]4C)nc2c1C(=O)O` [Calcimycin] here?
A: tox^d

Q: Which “CC50 (PrestoBlue cell viability)” value (BEAS-2B cells) does the source give for `CC[C@H]1CN2CCc3cc(OC)c(OC)cc3[C@@H]2C[C@@H]1C[C@H]1NCCc2cc(OC)c(OC)cc21` [Emetine] here?
A: tox^d

Q: Which inhibition at 5 µM [1] does the source give for `COc1cccc2c1C(=O)c1c(O)c3c(c(O)c1C2=O)C[C@@](O)(C(=O)CO)C[C@@H]3O[C@H]1C[C@H](N)[C@@H](O)[C@H](C)O1` [Epirubicin] here?
A: 62 ± 6.3%

Q: And the inhibition at 5 µM (recIAV WSN-NanoLuc [2])?
A: 75 ± 3.1%

Q: With `COc1cc([C@@H]2c3cc4c(cc3[C@@H](O[C@@H]3O[C@@H]5CO[C@@H](C)O[C@H]5[C@H](O)[C@H]3O)[C@H]3COC(=O)[C@H]23)OCO4)cc(OC)c1O` [Etoposide] as the molecule, how does the inhibition at 5 µM [1] read?
A: 80 ± 6.6%

Q: And the inhibition at 5 µM (recIAV WSN-NanoLuc [2])?
A: 56 ± 5.6%

Q: With `CC1=C(/C=C/C(C)=C/C=C/C(C)=C/C(=O)Nc2ccc(O)cc2)C(C)(C)CCC1` [Fenretinide] as the molecule, how does the EC50 (recRSV A2-L19F-renilla; [7]) read?
A: 4800 nM

Q: And the “EC50 IAV WSN-nanoLuc” value (recIAV WSN-NanoLuc [3])?
A: inactive^e

Q: What about the “effect on IAV reporter strain” value (recIAV WSN-NanoLuc [3]; highest concentration tested) of the same molecule?
A: unaffected

Q: And the “SI [CC50/EC50] RSV” value [4]?
A: SIRSV >2.8

Q: And the “selectivity for RSV reporter” value ([4]; dose-response counterscreen)?
A: selectively inhibited RSV

Q: And the CC50 (in vitro)?
A: > 10000 nM

Q: What about the EC50 [6] of the same molecule?
A: 3600 nM

Q: What does the source list for `Nc1ccn([C@@H]2O[C@H](CO)[C@@H](O)C2(F)F)c(=O)n1` [Gemcitabine]?
A: EC50 (recRSV A2-L19F-renilla; [7]): 50 nM; SI [CC50/EC50] IAV (recIAV WSN-NanoLuc [3]): SIIAV >100; SI [CC50/EC50] RSV [4]: SIRSV >111; CC50 (in vitro): > 10000 nM; EC50 (recIAV WSN-NanoLuc [5]): 100 nM; EC50 [6]: 90 nM

Q: For `COC(=O)C[C@](O)(CCCC(C)(C)O)C(=O)O[C@@H]1C(OC)=C[C@]23CCCN2CCc2cc4c(cc2[C@H]13)OCO4` [Homoharringtonine], which inhibition at 5 µM [1] is on record?
A: 98 ± 0.5%

Q: And the inhibition at 5 µM (recIAV WSN-NanoLuc [2])?
A: 90 ± 2.6%

Q: What does the source list for `CC(=O)[C@]1(O)Cc2c(O)c3c(c(O)c2[C@@H](O[C@H]2C[C@H](N)[C@H](O)[C@H](C)O2)C1)C(=O)c1ccccc1C3=O` [Idarubicin]?
A: inhibition at 5 µM [1]: 95 ± 1.3%; inhibition at 5 µM (recIAV WSN-NanoLuc [2]): 97 ± 1%; CC50 (PrestoBlue cell viability) (BEAS-2B cells): tox^d

Q: Which “antiviral activity in time-of-addition study” value (recRSV A2-L19F-ren) does the source give for `COc1ccc(-n2c(SC(C)C(=O)Nc3ccc(C)cc3Cl)nc3ccccc32)cc1` (stereo not drawn) [JMN3-003] here?
A: remained potently inhibitory

Q: Which EC50 (RSV A2 strain; active concentrations based on in vitro assays, when available RSV A2 strain) does the source give for `Cc1ccc(O)c(Cn2c(NC3CCN(CCN)CC3)nc3c(C)cccc32)n1` [JNJ2408068] here?
A: 2.1 nM

Q: And the reported resistance sites (RSV F protein)?
A: FK399I FD486N FE487D

Q: With `Nc1nc2c(c(=O)[nH]1)C[C@@H](CCc1ccc(C(=O)N[C@@H](CCC(=O)O)C(=O)O)cc1)CN2` [Lometrexol] as the molecule, how does the “CC50 (PrestoBlue cell viability)” value (BEAS-2B cells) read?
A: tox^d

Q: Which inhibition at 5 µM [1] does the source give for `CN(Cc1cnc2nc(N)nc(N)c2n1)c1ccc(C(=O)N[C@@H](CCC(=O)O)C(=O)O)cc1` [Methotrexate] here?
A: 99 ± 0.5%

Q: What about the inhibition at 5 µM (recIAV WSN-NanoLuc [2]) of the same molecule?
A: 100 ± 0.6%

Reference: patent publication US10100372B2, “Recombinant RSV reporter virus” (priority 2014, dated 2018)
